Assay [1] is described as follows: Heparin binding activity by liquid chromatography on Hi Trap Heparin HP column (NaCl elution). To be noted: step gradient 500-1000 mM NaCl in 10 mM NaH2PO4 pH 7. An excerpt: Liquid chromatography was used to determine the relative levels of heparin binding activity of the individual heparin binding domains and of the anti-angiogenic miniproteins that contains them. In this assay, the strength of the heparin binding activity is proportional to the amount of NaCl that is required to elute the peptide bound to the heparin column. Peptides with low binding activity are eluted with lower NaCl concentration, whereas higher concentrations of NaCl are required for peptides with higher binding activity.
Hi Trap Heparin HP column (1 ml, Amersham Biosciences) was equilibrated with 10 column volumes (CV) of equilibration (EQ) buffer=10 mM NaH2PO4pH 7. All buffers were loaded onto columns via syringes. 500 μl fractions are collected (flow rate=1 ml/minute). 500 μg of peptide (1 mg/ml, resuspended in EQ buffer) was added to each column and the flow through was collected for analysis. The columns were then washed with 3 CV of EQ buffer. Peptides are then eluted with a step gradient of 500, 625, 750, 875 mM NaCl in EQ buffer, 2 CV per each step. A final step of 3 CV of 1000 mM NaCl in EQ buffer was collected in 500 μl fractions. The A210 nm was measured using EQ and elution buffers as blanks.

A short description of assay [2]: Biological activity of D-amino acid versions of ST100,038 (assay not specified). To be noted: ST100,045 tested against ST100,059 and a control. How it is done:
D-amino acid peptides can be made by generating a D-amino acid peptide with the same sequence as a L-amino acid peptide or by preparing a retro inverso form of a peptide. ST100,045 (SEQ ID NO.: 31) has the same sequence as ST100,038 (SEQ ID NO.: 29) was tested against ST100,059 (SEQ ID NO.: 30) which is the retro inverso version of ST100,038 and a control.

Assay [3] deals with Bovine Retinal Endothelial Cells (BRE). Put plainly: VEGF-mediated survival/proliferation of BRE cells (WST1). It counts as cell-based. The following applies: increasing doses, FIG. 5. The protocol:
(§1) The anti-angiogenic activities of the peptides were tested by measuring the level of inhibition of VEGF and bFGF mediated survival/proliferation of Bovine Retinal Endothelial Cells (BRE), Human Dermal Microvasculature Endothelial Cells, and Human Umbilical Vein Endothelial Cells, all of which are standard cell lines used to test anti-angiogenic compounds.
Bovine retinal endothelial (BRE) cells were maintained in Cambrex EG2 media. For non-adherent cell assays, on day one cells were starved for either 6 hours or overnight, then trypsinized and plated in 96-well plates in 100 μl of Optimem plus 1% fetal bovine serum (FBS). One hundred μl of Optimem plus 1% FBS was added to the wells containing, where appropriate, VEGF to a final concentration of 25 ng/ml, and the various peptides to final concentrations as described. For adherent cells, cells were plated in 96-well plates in complete media, allowed to adhere overnight, washed in starvation media (Optimem plus 1% FBS) and then starved during the day. At the end of the day, 100 μl of Optimem plus 1% FBS was added to the wells containing, where appropriate, VEGF to a final concentration of 25 ng/ml and the various peptides to final concentrations as described.
(§2) In all cases, after 72 hours incubation, the amount of live cells in each well was measured with the WST1 assay (Roche).

For assay [4], the system named is B16 melanoma tumor. Kind of assay: Subcutaneous B16 melanoma tumor model in vivo. On the set-up: species or system mouse. To be noted: 20 mg/kg daily IP, vs untreated controls, FIG. 12. How it is done:
Because of the importance of the angiogenic process for tumorigenesis, miniproteins as described herein, were hypothesized to show good anti-tumor activity. The peptides of the invention were tested in an in vivo model of anti-tumor activity. This model compares the growth of sub cutaneous B16 melanoma tumor in vivo either untreated or treated with various amount of miniproteins described in this application. This model is widely accepted in the art as a model to test the anti-tumor activity of compounds that inhibit tumor growth because they have anti-angiogenic activity.
Male C57BL/6 mice were obtained with a mean body weight of 20±2 g. Mouse B16-F1 melanoma cells were implanted subcutaneously (5×10^5 cell per animal). Peptides (formulated in water) were administered ip daily at the amount indicated starting the day after cells injection. In general, tumors became palpable around 9 days after injection of cells. Tumor were then measured every 2 days.

Assay [5] has as its system RPMI-8226 human myeloma xenografts. Kind of assay: RPMI-8226 human myeloma subcutaneous xenograft model in scid mice. Type of assay: in vivo. To be noted: vs untreated controls, FIG. 16. How it is done:
Anti-tumor efficacy of test peptides was evaluated against RPMI-8226 human myeloma xenografts implanted subcutaneously (sc) in severe compromised immunodeficient (scid) mice.
Studies generally consisted of randomly-assigned groups of 8 or 10 mice per group, which were implanted sc with myeloma fragments (30-40 mg). In addition to groups tested with test peptides, studies usually included a vehicle-treated control group and a positive control group treated with an agent known to be active in the RPMI-8226 model. In one type of schedule, mice were treated IP with either vehicle or test peptides starting one day after tumor implantation (implantation day defined as Day 0). Test peptides and vehicle were generally administered IP daily for 3-4 weeks.
Dosing solutions of the test peptides were prepared weekly and kept at −20° C. between injections. […] Each tumor was measured by caliper in two dimensions and converted to tumor mass using the formula for a prolate ellipsoid (a X b^2/2), where a is the longer dimension and b is the smaller dimension, and assuming unit density (1 mm^3=1 mg). Tumor measurements were recorded twice weekly. Body weights were also recorded twice weekly. Anti-tumor activity was assessed by the delay in tumor growth of the treated groups in comparison to the vehicle-treated control group, partial and complete regressions, and tumor-free survivors. […]

In assay [6] the test system is human dermal microvasculature endothelial cells. Put plainly: VEGF mediated survival/proliferation in human dermal microvasculature endothelial cells. The following applies: 30, 100, and 200 μg/ml, FIG. 8. Type of assay: cell-based. How it is done: as §1, §2
(§3) In a further experiment, the anti-angiogenic activity of peptide ST100,061 (SEQ ID NO.: 3), a derivative of ST100,032 (SEQ ID NO.: 1), at concentrations of 30, 100, and 200 μg/ml was tested by measuring the level of inhibition of VEGF and bFGF mediated survival/proliferation in human dermal microvasculature endothelial cells.

Assay [7] shares this test system. Put plainly: bFGF mediated survival/proliferation in human dermal microvasculature endothelial cells. It counts as cell-based. The following applies: 30, 100, and 200 μg/ml, FIG. 8. The protocol: as §1, §2, §3
Assay [8] has as its system Human Umbilical Vein Endothelial Cells. Put plainly: bFGF-mediated survival/proliferation of human umbilical vein endothelial cells (WST1). Type of assay: cell-based. The protocol: as §1
Human umbilical cord endothelial (HUVEC) cells were maintained in Cambrex EGM-2MV media. On day one, cells were starved overnight in 1% FBS in M200 media (Cascade Biologicals). The morning after, the media were replaced with serum-free media (control) or media containing 25 ng/ml of human VEGF165 and the various peptides to final concentrations as described.
as §2
(Tetrazolium dyes change colour on reduction, which living cells bring about.)

Assay [9] deals with mouse leukemia L1210 cells. Kind of assay: Tumor cell proliferation (WST-1), L1210. Type of assay: cell-based. The following applies: FIG. 11. The protocol:
Peptides to be tested were prepared at a stock concentration of 10 mM in sterile phosphate buffered saline. Cancer cell lines obtained from the American Type Culture Collection (MG-63, HT1080, A498, BxPC3, 786-0, PC-3, B16F1, B16F10, P388D1, Jurkat, MOLT4, THP-1, U-937, L1210, RPMI 8226, NCI H929, U266B1, K562) were cultured under appropriate conditions as described in the literature. Cell culture media and reagents were obtained from ATCC (Manassas, Va.), Invitrogen (Carlsbad, Calif.) or Mediatech (Herndon, Va.). Exponentially growing cultures were used for cell proliferation assays. Adherent cells were plated at a concentration of 100000 cells per milliter in growth media overnight (18-24 h) and treated the next day in a low serum media (growth media with 1% FBS for MG-63, HT1080, A498, BxPC3, PC-3, B16F1, B16F10. 786-0 cells were treated in media with 5% FBS). Suspension cell lines (P388D1, Jurkat, MOLT4, THP-1, U-937, L1210, RPMI 8226, NCI H929, U266B1, and K562) were diluted to a concentration of 100,000 cells per ml and treated on the same day with peptides. Peptides were diluted in treatment media and cells were treated for 48 or 72 hours depending on the cell line. Each dose was tested in triplicate for each experiment, and experiments were repeated for a minimum of three discrete times. After incubation, the relative number of cells was determined using WST-1 (Roche Applied Science). A 9.5 μl aliquot of WST-1 was added to each well. The plate was immediately read at 440 nm using a Bio-Tek PowerWave XS microplate reader, incubated for 2-3 hours at 37° C. and then read again. Cell proliferation was determined as the percent of the control cell proliferation. The absorbance of each well at time 0 was subtracted from the value of the final reading. Afterwards the blank values were averaged and subtracted from each test and control value. Finally, each test absorbance was divided by the average of the control absorbances and multiplied by 100 to obtain the percent of control. […]

Assay [10] has as its system L1210 murine leukemia. Kind of assay: L1210 murine leukemia intravenous model in vivo. More on the design: species or system mouse. To be noted: dosed IP, DBA/2 mice, FIG. 15a. How it is done:
Antitumor activity of test peptides, administered intraperitoneally (IP), were evaluated against L1210 murine leukemia cells implanted intravenously (IV) in DBA/2 mice.
Studies generally consisted of randomly-assigned groups of 8 mice per group, which were inoculated IV with 1×10^5 cells per mouse from an in vivo leukemia cell line. In addition to groups tested with test peptides, studies usually included a vehicle-treated control group and a positive control group treated with an agent known to be active in the L1210 leukemia model. Starting one day after tumor inoculation (inoculation day defined as Day 0), mice were treated IP with either vehicle or test peptides in various schedules. Generally this consisted of treatment every other day for approximately 1 week (e.g., Days 1, 3, 5 and 7). A positive agent (e.g., cyclophosphamide) was usually given as a single IP injection on Day 1. All dosing solutions were prepared on each day of treatment. Survival was monitored daily and body weights were measured twice weekly. Anti-tumor activity was assessed by the increase in lifespan of the treated groups in comparison to the vehicle-treated control group. Studies with the L1210 leukemia model were limited to 30 days.

Consider three sequences from patent US20080207502A1, “Anti-Angiogenic Peptides and Methods of Use Thereof” (SOPHERION THERAPEUTICS, INC., priority 2004, published 2008).

For “PSQSSHPPLSTA (listed as Homo sapiens) [ST100,059]”, the “[NaCl] for elution” value in [1] was found to be 0 mM. Also, in assay [2], the biologically active is “biologically active”. Besides, the “inhibition of VEGF stimulation” value in assay [3] is given as “inhibited with increasing doses”. The “inhibition of tumor growth” value is reported as “clearly inhibit tumor growth” in assay [4] and “does not inhibit tumor growth” in assay [5] (100 mg/kg daily IP).
With “PYDGRGDSVVYGLRKKKAARGRRAARGRR (listed as Homo sapiens) [ST100,061, a derivative of ST100,032]”, the “inhibition of VEGF mediated survival/proliferation” value in assay [6] is “effective in inhibiting both VEGF and bFGF”. Besides, the “inhibition of bFGF mediated survival/proliferation” value in assay [7] was “effective in inhibiting both VEGF and bFGF”. The “inhibition of tumor growth” value in [4] is “may be less active”.
Take “RRGRAARRGRAAKKKRLGYVVSDGRGDYP [ST100,064]”: in assay [8] (compared with ST100,061, FIG. 9), the “inhibition of bFGF mediated survival” value is “as effectively as ST100,061”. Also, in assay [8] (comparison of several peptides, FIG. 10), the “inhibition of bFGF mediated survival” value is “the most active in inhibiting bFGF stimulation”. For the same sequence, the “blocked cell proliferation or induced cell death” value in assay [9] was “able to block cell proliferation and induce cell death”. In assay [10], the “mice (cured mice) survived longer than 30 days” value is given as “Sixty to eighty percent” and the survival result was “statistically significant increases in survival”. In addition, in assay [5] (25 mg/kg daily IP), the “inhibition of tumor growth” value is given as “able to inhibit tumor growth”.
